pEC50: −log10 of the molar value.
target: human GLP1R (Homo sapiens (Human), UniProt P43220); test: In vitro cAMP signal activation in human GLP1R stably-expressing cell line (hGLP1R-HEK293); assay type: cell-based; settings: cAMP concentration in hGLP1R-HEK293; 100% = 1 nM human GLP-1 (7-37)
Procedure: <Test Example 1> Measurement of In Vitro cAMP Signal Activation of a Compound in Human GLP1R
A human GLP1R stably-expressing cell line (hGLP1R-HEK293) was used in the experiment. The cells were cultured in a Dulbecco's modified Eagle's medium (DMEM) containing 10% fetal bovine serum (Sigma-Aldrich), 100 units/mL penicillin G and 100 μg/mL streptomycin sulfate (Gibco), and 500 μg/mL Geneticin (Gibco), under a moist atmosphere containing 5% CO2, at 37° C.
hGLP1R-HEK293 was seeded in 96 well plates at 2.0×10^4 cells per well and cultured over night. The medium for culturing the cells was changed to 50 μL of Medium A (DMEM, 20 mM HEPES, 0.05% BSA, 0.5 mM 3-isobutyl-1-methylxanthine) the next day, and the cells were incubated at 37° C. for 30 min. Then, 50 μL of Medium B (DMEM, 20 mM HEPES, 0.05% BSA, 0.5 mM 3-isobutyl-1-methylxanthine) containing GLP-1 or the compound was added, and the cells were incubated at 37° C. for an additional 30 min. Then, 100 μL of Assay lysis buffer (Applied Bioscience) was added, and the cells were incubated at 37° C. for 30 min. The cAMP concentration was quantified using cAMP HiRange kit (Cisbio Bioassays).
By setting the cAMP concentration when the human GLP-1 (7-37) was put into action at a concentration of 1 nM to 100%, the cAMP concentration of each well was converted to a reaction rate (%).

Chain of human GLP1R (P43220 24-463): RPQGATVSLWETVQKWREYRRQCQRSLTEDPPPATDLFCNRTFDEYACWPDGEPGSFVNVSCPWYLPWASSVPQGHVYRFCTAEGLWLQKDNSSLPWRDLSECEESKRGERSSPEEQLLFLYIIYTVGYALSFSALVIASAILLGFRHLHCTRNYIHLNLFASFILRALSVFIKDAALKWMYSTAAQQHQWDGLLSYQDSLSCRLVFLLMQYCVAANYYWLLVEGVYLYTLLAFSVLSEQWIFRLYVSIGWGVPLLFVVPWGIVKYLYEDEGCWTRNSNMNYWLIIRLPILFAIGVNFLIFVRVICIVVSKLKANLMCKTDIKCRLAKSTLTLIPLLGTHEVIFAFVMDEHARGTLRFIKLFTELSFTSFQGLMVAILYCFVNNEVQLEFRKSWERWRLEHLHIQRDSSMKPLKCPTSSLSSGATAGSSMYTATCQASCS

pEC50 | Compound
8.85 | Cc1cc(-n2nc3c(c2-n2ccn(-c4ccc5c(cnn5CC5(C)COC5)c4F)c2=O)[C@H](C)N(C(=O)c2cc4cc(C5CCOCC5)ccc4n2[C@@]2(c4noc(=O)[nH]4)C[C@@H]2C)CC3)cc(C)c1F [Example 29, 3-[(1S,2S)-1-[2-[(4S)-2-(4-fluoro-3,5-dimethylphenyl)-3-[3-[4-fluoro-1-[(3-methyloxetan-3-yl)methyl]indazol-5-yl]-2-oxoimidazol-1-yl]-4-methyl-6,7-dihydro-4H-pyrazolo[4,3-c]pyridine-5-carbonyl]-5-(oxan-4-yl)indol-1-yl]-2-methylcyclopropyl]-4H-1,2,4-oxadiazol-5-one]
8.85 | Cc1cc(-n2nc3c(c2-n2ccn(-c4ccc5c(cnn5CC(C)(C)O)c4F)c2=O)[C@H](C)N(C(=O)c2cc4cc(C5CCOCC5)ccc4n2[C@@]2(c4noc(=O)[nH]4)C[C@@H]2C)CC3)cc(C)c1F [Example 30, 3-[(1S,2S)-1-[2-[(4S)-2-(4-fluoro-3,5-dimethylphenyl)-3-[3-[4-fluoro-1-(2-hydroxy-2-methylpropyl)indazol-5-yl]-2-oxoimidazol-1-yl]-4-methyl-6,7-dihydro-4H-pyrazolo[4,3-c]pyridine-5-carbonyl]-5-(oxan-4-yl)indol-1-yl]-2-methylcyclopropyl]-4H-1,2,4-oxadiazol-5-one]
9.13 | COCCn1ncc2cc(-n3ccn(-c4c5c(nn4-c4cc(C)c(F)c(C)c4)CCN(C(=O)c4cc6cc([C@H]7CCOC(C)(C)C7)ccc6n4[C@@]4(c6noc(=O)[nH]6)C[C@@H]4C)[C@H]5C)c3=O)ccc21 [Example 31, 3-[(1S,2S)-1-[5-[(4S)-2,2-dimethyloxan-4-yl]-2-[(4S)-2-(4-fluoro-3,5-dimethylphenyl)-3-[3-[1-(2-methoxyethyl)indazol-5-yl]-2-oxoimidazol-1-yl]-4-methyl-6,7-dihydro-4H-pyrazolo[4,3-c]pyridine-5-carbonyl]indol-1-yl]-2-methylcyclopropyl]-4H-1,2,4-oxadiazol-5-one]
8.49 | Cc1cc(-n2nc3c(c2-n2ccn(-c4ccc5c(cnn5CC(F)(F)F)c4F)c2=O)[C@H](C)N(C(=O)c2cc4cc([C@H]5CCOC(C)(C)C5)ccc4n2[C@@]2(c4noc(=O)[nH]4)C[C@@H]2C)CC3)cc(C)c1F [Example 35, 3-[(1S,2S)-1-[5-[(4S)-2,2-dimethyloxan-4-yl]-2-[(4S)-2-(4-fluoro-3,5-dimethylphenyl)-3-[3-[4-fluoro-1-(2,2,2-trifluoroethyl)indazol-5-yl]-2-oxoimidazol-1-yl]-4-methyl-6,7-dihydro-4H-pyrazolo[4,3-c]pyridine-5-carbonyl]indol-1-yl]-2-methylcyclopropyl]-4H-1,2,4-oxadiazol-5-one]
8.68 | COCCn1ncc2c(F)c(-n3ccn(-c4c5c(nn4-c4cc(C)c(F)c(C)c4)CCN(C(=O)c4cc6cc([C@H]7CCOC(C)(C)C7)ccc6n4[C@@]4(c6noc(=O)[nH]6)C[C@@H]4C)[C@H]5C)c3=O)ccc21 [Example 36, 3-[(1S,2S)-1-[5-[(4S)-2,2-dimethyloxan-4-yl]-2-[(4S)-2-(4-fluoro-3,5-dimethylphenyl)-3-[3-[4-fluoro-1-(2-methoxyethyl)indazol-5-yl]-2-oxoimidazol-1-yl]-4-methyl-6,7-dihydro-4H-pyrazolo[4,3-c]pyridine-5-carbonyl]indol-1-yl]-2-methylcyclopropyl]-4H-1,2,4-oxadiazol-5-one]
8.60 | Cc1cc(-n2nc3c(c2-n2ccn(-c4ccc5c(cnn5CC5(C)COC5)c4F)c2=O)[C@H](C)N(C(=O)c2cc4cc([C@H]5CCOC(C)(C)C5)ccc4n2[C@@]2(c4noc(=O)[nH]4)C[C@@H]2C)CC3)cc(C)c1F [Example 37, 3-[(1S,2S)-1-[5-[(4S)-2,2-dimethyloxan-4-yl]-2-[(4S)-2-(4-fluoro-3,5-dimethylphenyl)-3-[3-[4-fluoro-1-[(3-methyloxetan-3-yl)methyl]indazol-5-yl]-2-oxoimidazol-1-yl]-4-methyl-6,7-dihydro-4H-pyrazolo[4,3-c]pyridine-5-carbonyl]indol-1-yl]-2-methylcyclopropyl]-4H-1,2,4-oxadiazol-5-one]
8.77 | Cc1cc(-n2nc3c(c2-n2ccn(-c4ccc5c(cnn5CC(C)(C)O)c4F)c2=O)[C@H](C)N(C(=O)c2cc4cc([C@H]5CCOC(C)(C)C5)ccc4n2[C@@]2(c4noc(=O)[nH]4)C[C@@H]2C)CC3)cc(C)c1F [Example 38, 3-[(1S,2S)-1-[5-[(4S)-2,2-dimethyloxan-4-yl]-2-[(4S)-2-(4-fluoro-3,5-dimethylphenyl)-3-[3-[4-fluoro-1-(2-hydroxy-2-methylpropyl)indazol-5-yl]-2-oxoimidazol-1-yl]-4-methyl-6,7-dihydro-4H-pyrazolo[4,3-c]pyridine-5-carbonyl]indol-1-yl]-2-methylcyclopropyl]-4H-1,2,4-oxadiazol-5-one]
9.00 | Cc1cc(-n2nc3c(c2-n2ccn(-c4ccc5c(c4)CC(=O)N(C)C5)c2=O)[C@H](C)N(C(=O)c2cc4cc([C@H]5CCOC(C)(C)C5)ccc4n2[C@@]2(c4noc(=O)[nH]4)C[C@@H]2C)CC3)cc(C)c1F [Example 39, 3-[(1S,2S)-1-[5-[(4S)-2,2-dimethyloxan-4-yl]-2-[(4S)-2-(4-fluoro-3,5-dimethylphenyl)-4-methyl-3-[3-(2-methyl-3-oxo-1,4-dihydroisoquinolin-6-yl)-2-oxoimidazol-1-yl]-6,7-dihydro-4H-pyrazolo[4,3-c]pyridine-5-carbonyl]indol-1-yl]-2-methylcyclopropyl]-4H-1,2,4-oxadiazol-5-one]
8.66 | Cc1cc(-n2nc3c(c2-n2ccn(-c4ccc5c(cnn5[C@H]5CCOC5)c4F)c2=O)[C@H](C)N(C(=O)c2cc4cc([C@H]5CCOC(C)(C)C5)ccc4n2[C@@]2(c4noc(=O)[nH]4)C[C@@H]2C)CC3)cc(C)c1F [Example 40, 3-[(1S,2S)-1-[5-[(4S)-2,2-dimethyloxan-4-yl]-2-[(4S)-2-(4-fluoro-3,5-dimethylphenyl)-3-[3-[4-fluoro-1-[(3S)-oxolan-3-yl]indazol-5-yl]-2-oxoimidazol-1-yl]-4-methyl-6,7-dihydro-4H-pyrazolo[4,3-c]pyridine-5-carbonyl]indol-1-yl]-2-methylcyclopropyl]-4H-1,2,4-oxadiazol-5-one]
8.62 | Cc1cc(-n2nc3c(c2-n2ccn(-c4ccc5c(cnn5C)c4F)c2=O)[C@H](C)N(C(=O)c2cc4cc([C@H]5CCO[C@@H](C)C5)ccc4n2[C@@]2(c4noc(=O)[nH]4)C[C@@H]2C)CC3)cc(C)c1F [Example 41, 3-[(1S,2S)-1-[2-[(4S)-2-(4-fluoro-3,5-dimethylphenyl)-3-[3-(4-fluoro-1-methylindazol-5-yl)-2-oxoimidazol-1-yl]-4-methyl-6,7-dihydro-4H-pyrazolo[4,3-c]pyridine-5-carbonyl]-5-[(2S,4S)-2-methyloxan-4-yl]indol-1-yl]-2-methylcyclopropyl]-4H-1,2,4-oxadiazol-5-one]
8.72 | Cc1cc(-n2nc3c(c2-n2ccn(-c4ccc5c(cnn5CC(F)(F)F)c4F)c2=O)[C@H](C)N(C(=O)c2cc4cc([C@H]5CCOC(C)(C)C5)ccc4n2[C@@]2(c4noc(=O)[nH]4)C[C@@H]2C)CC3)cc(C)c1Cl [Example 42, 3-[(1S,2S)-1-[2-[(4S)-2-(4-chloro-3,5-dimethylphenyl)-3-[3-[4-fluoro-1-(2,2,2-trifluoroethyl)indazol-5-yl]-2-oxoimidazol-1-yl]-4-methyl-6,7-dihydro-4H-pyrazolo[4,3-c]pyridine-5-carbonyl]-5-[(4S)-2,2-dimethyloxan-4-yl]indol-1-yl]-2-methylcyclopropyl]-4H-1,2,4-oxadiazol-5-one]
8.82 | COCCn1ncc2c(F)c(-n3ccn(-c4c5c(nn4-c4cc(C)c(Cl)c(C)c4)CCN(C(=O)c4cc6cc([C@H]7CCOC(C)(C)C7)ccc6n4[C@@]4(c6noc(=O)[nH]6)C[C@@H]4C)[C@H]5C)c3=O)ccc21 [Example 43, 3-[(1S,2S)-1-[2-[(4S)-2-(4-chloro-3,5-dimethylphenyl)-3-[3-[4-fluoro-1-(2-methoxyethyl)indazol-5-yl]-2-oxoimidazol-1-yl]-4-methyl-6,7-dihydro-4H-pyrazolo[4,3-c]pyridine-5-carbonyl]-5-[(4S)-2,2-dimethyloxan-4-yl]indol-1-yl]-2-methylcyclopropyl]-4H-1,2,4-oxadiazol-5-one]
8.82 | Cc1cc(-n2nc3c(c2-n2ccn(-c4ccc5c(cnn5CC(F)(F)F)c4F)c2=O)[C@H](C)N(C(=O)c2cc4cc(C5CCOCC5)ccc4n2[C@@]2(c4noc(=O)[nH]4)C[C@@H]2C)CC3)cc(C)c1Cl [Example 44, 3-[(1S,2S)-1-[2-[(4S)-2-(4-chloro-3,5-dimethylphenyl)-3-[3-[4-fluoro-1-(2,2,2-trifluoroethyl)indazol-5-yl]-2-oxoimidazol-1-yl]-4-methyl-6,7-dihydro-4H-pyrazolo[4,3-c]pyridine-5-carbonyl]-5-(oxan-4-yl)indol-1-yl]-2-methylcyclopropyl]-4H-1,2,4-oxadiazol-5-one]

From patent US10858356B2, “Pyrazolopyridine derivative having GLP-1 receptor agonist effect” (Chugai Seiyaku Kabushiki Kaisha, priority 2016, dated 2020)
